# From patent publication US12391679B2, “Benzamide-substituted bicyclic imidazo- and pyrazolo-fused -pyridine, -pyrimide, and -pyridazine compounds for treatment of inflammatory diseases” (ONCO3R Therapeutics BV, priority 2019, dated 2025)
# Where two headings read alike, the source gives them in different places.
# Assays:
# [1] = tested on: LPS-induced TNFα in monocyte-derived macrophages; test: MdM assay: LPS-triggered TNFα (ELISA); format: cell-based, human
# Outline: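 TNFα secretion quantified by streptavidin-HRP/luminol sandwich ELISA in supernatants collected 20 h after LPS (200 ng/mL). Macrophages derived from magnetically isolated human CD14+ monocytes were used at day 10, with compound added 1 h before LPS; final DMSO 0.2%.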
# SIK1 = molecular target: T1, SIK1 (Homo sapiens, UniProt P57059); test: ADP-Glo kinase assay, SIK1; format: biochemical
# T1 construct: purchased Carna Biosciences 02-131
# T1 sequence (P57059 whole entry): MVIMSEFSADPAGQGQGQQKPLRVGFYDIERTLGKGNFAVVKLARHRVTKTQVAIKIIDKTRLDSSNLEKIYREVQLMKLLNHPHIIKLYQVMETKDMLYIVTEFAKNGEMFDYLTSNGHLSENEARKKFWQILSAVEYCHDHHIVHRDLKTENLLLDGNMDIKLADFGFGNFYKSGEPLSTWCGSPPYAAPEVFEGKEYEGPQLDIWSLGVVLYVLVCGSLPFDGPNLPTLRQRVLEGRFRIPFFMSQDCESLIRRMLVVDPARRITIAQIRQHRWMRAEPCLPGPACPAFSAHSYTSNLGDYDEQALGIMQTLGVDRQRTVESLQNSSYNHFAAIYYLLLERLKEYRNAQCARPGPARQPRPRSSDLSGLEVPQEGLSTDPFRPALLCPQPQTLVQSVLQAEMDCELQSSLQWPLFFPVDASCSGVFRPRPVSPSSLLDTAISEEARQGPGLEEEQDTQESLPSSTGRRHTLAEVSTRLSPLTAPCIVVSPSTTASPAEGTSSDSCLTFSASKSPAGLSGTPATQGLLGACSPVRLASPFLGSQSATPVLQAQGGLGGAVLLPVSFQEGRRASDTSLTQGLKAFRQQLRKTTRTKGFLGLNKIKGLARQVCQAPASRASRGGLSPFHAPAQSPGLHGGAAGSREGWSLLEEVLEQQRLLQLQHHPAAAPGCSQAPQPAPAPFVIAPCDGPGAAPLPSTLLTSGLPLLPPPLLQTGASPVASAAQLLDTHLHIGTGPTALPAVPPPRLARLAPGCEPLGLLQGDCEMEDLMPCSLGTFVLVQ
# Outline: (§1)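 Kinase reactions ran 120 min at room temperature after ATP addition to enzyme-substrate mix. Remaining ATP was depleted (40 min) and ADP converted to ATP for luciferase detection (30 min), signal rising with activity. Final 1% DMSO and 10 μM staurosporine served as negative and positive controls.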
# SIK2 = molecular target: T2, SIK2 (Homo sapiens, UniProt Q9H0K1); test: ADP-Glo kinase assay, SIK2; format: biochemical
# T2 construct: purchased ThermoFisher Scientific PV4792
# T2 sequence (Q9H0K1 whole entry): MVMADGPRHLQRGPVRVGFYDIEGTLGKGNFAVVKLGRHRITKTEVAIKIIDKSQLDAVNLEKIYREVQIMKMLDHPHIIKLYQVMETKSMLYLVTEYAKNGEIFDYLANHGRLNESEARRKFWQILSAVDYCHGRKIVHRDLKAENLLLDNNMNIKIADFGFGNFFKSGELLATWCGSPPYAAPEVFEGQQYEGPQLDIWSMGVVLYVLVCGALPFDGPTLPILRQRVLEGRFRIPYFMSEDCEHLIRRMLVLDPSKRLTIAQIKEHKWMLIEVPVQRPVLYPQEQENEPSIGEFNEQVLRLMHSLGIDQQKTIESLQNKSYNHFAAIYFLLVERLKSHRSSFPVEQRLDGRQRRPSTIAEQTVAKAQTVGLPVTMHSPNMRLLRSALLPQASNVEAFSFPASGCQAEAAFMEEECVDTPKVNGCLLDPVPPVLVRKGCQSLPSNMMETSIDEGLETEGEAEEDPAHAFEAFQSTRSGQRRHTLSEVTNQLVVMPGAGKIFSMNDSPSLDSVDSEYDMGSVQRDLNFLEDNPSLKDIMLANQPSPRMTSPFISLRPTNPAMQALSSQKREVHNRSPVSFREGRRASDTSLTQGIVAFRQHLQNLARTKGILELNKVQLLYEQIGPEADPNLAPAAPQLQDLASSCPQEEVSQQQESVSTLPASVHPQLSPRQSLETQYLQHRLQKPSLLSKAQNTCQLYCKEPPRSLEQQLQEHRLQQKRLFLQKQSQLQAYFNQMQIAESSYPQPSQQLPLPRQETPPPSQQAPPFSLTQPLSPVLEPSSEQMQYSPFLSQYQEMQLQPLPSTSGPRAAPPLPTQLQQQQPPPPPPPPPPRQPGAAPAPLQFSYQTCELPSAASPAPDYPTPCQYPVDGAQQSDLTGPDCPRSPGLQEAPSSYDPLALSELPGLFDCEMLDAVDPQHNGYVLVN
# Outline: as §1
# [2] = Macrophage, human MdM, LPS 200 ng/mL, supernatant after 20 h, inhibition of TNFα, read-out: TNFα EC50
# [3] = ADP-Glo, AMARA 45 μM, 5 μM ATP, 120 min, average IC50
# [4] = Homo sapiens, Macrophage, 20 h, read-out: TNFα EC50 (nM)
Structure (SMILES),"EC50 [1, 2] [nM]",IC50 (SIK1) [nM],IC50 (SIK2) [nM],further results
"COc1cc(-c2cnc3cc(C(C)(C#N)CO)ccn23)cc(OC(F)F)c1C(=O)NC1CC1 (stereo not shown) [Cpd 176, 4-[7-(1-cyano-2-hydroxy-1-methyl-ethyl)imidazo[1,2-a]pyridin-3-yl]-N-cyclopropyl-2-(difluoromethoxy)-6-methoxy-benzamide]",1000 to 5000,> 500,> 500,–
"COc1cc(-c2cnc3cc([C@@](C)(C#N)CO)ccn23)cc(OC(F)F)c1C(=O)NC1CC1 (single isomer, unassigned) [Cpd 190, 4-[7-(1-cyano-2-hydroxy-1-methyl-ethyl)imidazo[1,2-a]pyridin-3-yl]-N-cyclopropyl-2-(difluoromethoxy)-6-methoxy-benzamide]",–,–,–,"EC50 ([1]; human MdM, LPS 200 ng/mL, supernatant after 20 h, inhibition of TNFα, read-out: TNFα EC50): 1000 to 5000 nM; IC50 (SIK1; [3]): > 500 nM; IC50 (SIK2; [3]): > 500 nM"
"COc1cc(-c2cnc3cc(C4(C#N)CC4)ccn23)cc(OC(F)F)c1C(=O)NC1CC1 [Cpd 33, 4-[7-(1-cyanocyclopropyl)imidazo[1,2-a]pyridin-3-yl]-N-cyclopropyl-2-(difluoromethoxy)-6-methoxy-benzamide]",100 to 1000,100 to 500,10 to 100,–
"COc1cc(-c2cnc3cc(C4(C#N)COC4)ccn23)cc(OC(F)F)c1C(=O)NC1CC1 [Cpd 117, 4-[7-(3-cyanooxetan-3-yl)imidazo[1,2-a]pyridin-3-yl]-N-cyclopropyl-2-(difluoromethoxy)-6-methoxy-benzamide]",100 to 1000,> 500,> 500,–
"COc1cc(-c2cnn3cc(C(C)(C)C#N)ccc23)cc(OC(F)F)c1C(=O)N[C@@H]1C[C@@H]1F [Cpd 219, 4-[6-(1-cyano-1-methyl-ethyl)pyrazolo[1,5-a]pyridin-3-yl]-2-(difluoromethoxy)-N-[(1R,2S)-2-fluorocyclopropyl]-6-methoxy-benzamide]",–,–,–,"EC50 [1, 4]: 100 to 1000 nM"
"COc1cc(-c2cnc3cc(C(C)(C)C#N)ccn23)cc(OC(F)F)c1C(=O)NC1CC1 [Cpd 19, 4-[7-(1-cyano-1-methyl-ethyl)imidazo[1,2-a]pyridin-3-yl]-N-cyclopropyl-2-(difluoromethoxy)-6-methoxy-benzamide]",100 to 1000,> 500,> 500,–
"COc1cc(-c2cnc3cc(C4(F)COC4)ccn23)cc(OC(F)F)c1C(=O)N[C@@H]1C[C@@H]1F [Cpd 224, 2-(difluoromethoxy)-N-[(1R,2S)-2-fluorocyclopropyl]-4-[7-(3-fluorooxetan-3-yl)imidazo[1,2-a]pyridin-3-yl]-6-methoxy-benzamide]",100 to 1000,100 to 500,10 to 100,–
"COc1cc(-c2cnn3cc(C4(C#N)CCOCC4)ccc23)cc(OC(F)F)c1C(=O)NC1CC1 [Cpd 237, 4-[6-(4-cyanotetrahydropyran-4-yl)pyrazolo[1,5-a]pyridin-3-yl]-N-cyclopropyl-2-(difluoromethoxy)-6-methoxy-benzamide]",1000 to 5000,> 500,> 500,–
"COc1cc(-c2cnc3cc(C4(O)CCOCC4)ccn23)cc(OC(F)F)c1C(=O)NC1CC1 [Cpd 170, N-cyclopropyl-2-(difluoromethoxy)-4-[7-(4-hydroxytetrahydropyran-4-yl)imidazo[1,2-a]pyridin-3-yl]-6-methoxy-benzamide]",1000 to 5000,> 500,> 500,–
"COc1cc(-c2cnc3cc(C4CCCN4C)ccn23)cc(OC(F)F)c1C(=O)NC1CC1 (stereo not shown) [Cpd 171, N-cyclopropyl-2-(difluoromethoxy)-6-methoxy-4-[7-(1-methylpyrrolidin-2-yl)imidazo[1,2-a]pyridin-3-yl]benzamide]",1000 to 5000,> 500,> 500,–
"COc1cc(-c2cnc3cc(C(C)(C)C#N)ccn23)cc(OC(F)F)c1C(=O)NCC1CC1 [Cpd 39, 4-[7-(1-cyano-1-methyl-ethyl)imidazo[1,2-a]pyridin-3-yl]-N-(cyclopropylmethyl)-2-(difluoromethoxy)-6-methoxy-benzamide]",100 to 1000,> 500,> 500,–
"COc1cc(-c2cnc3cc(C(C)(C)C#N)cnn23)cc(OC(F)F)c1C(=O)N[C@@H]1C[C@@H]1F [Cpd 228, 4-[7-(1-cyano-1-methyl-ethyl)imidazo[1,2-b]pyridazin-3-yl]-2-(difluoromethoxy)-N-[(1R,2S)-2-fluorocyclopropyl]-6-methoxy-benzamide]",100 to 1000,> 500,100 to 500,–
"COc1cc(-c2cnc3cc(C(C)(C)CN4CCOCC4)ccn23)cc(OC(F)F)c1C(=O)NC1CC1 [Cpd 160, N-cyclopropyl-2-(difluoromethoxy)-4-[7-(1,1-dimethyl-2-morpholino-ethyl)imidazo[1,2-a]pyridin-3-yl]-6-methoxy-benzamide]",100 to 1000,> 500,> 500,–
"COc1cc(-c2cnn3cc(C(C)(C)CO)ccc23)cc(OC(F)F)c1C(=O)N[C@@H]1C[C@@H]1F [Cpd 242, 2-(difluoromethoxy)-N-[(1R,2S)-2-fluorocyclopropyl]-4-[6-(2-hydroxy-1,1-dimethyl-ethyl)pyrazolo[1,5-a]pyridin-3-yl]-6-methoxy-benzamide]",100 to 1000,> 500,> 500,–
"COc1cc(-c2cnn3cc(C4(O)CCC4)ccc23)cc(OC(F)F)c1C(=O)N[C@@H]1C[C@@H]1F [Cpd 266, 2-(difluoromethoxy)-N-[(1R,2S)-2-fluorocyclopropyl]-4-[6-(1-hydroxycyclobutyl)pyrazolo[1,5-a]pyridin-3-yl]-6-methoxy-benzamide]",100 to 1000,> 500,100 to 500,–
"COc1cc(-c2cnc3cc(C4(C#N)CCOCC4)ccn23)cc(OC)c1C(=O)NCC(F)(F)F [Cpd 107, 4-[7-(4-cyanotetrahydropyran-4-yl)imidazo[1,2-a]pyridin-3-yl]-2,6-dimethoxy-N-(2,2,2-trifluoroethyl)benzamide]",1000 to 5000,> 500,> 500,–
"COc1cc(-c2cnn3cc(C4(C(N)=O)CCC4)ccc23)cc(OC(F)F)c1C(=O)N[C@@H]1C[C@@H]1F [Cpd 254, 4-[6-(1-carbamoylcyclobutyl)pyrazolo[1,5-a]pyridin-3-yl]-2-(difluoromethoxy)-N-[(1R,2S)-2-fluorocyclopropyl]-6-methoxy-benzamide]",1000 to 5000,> 500,> 500,–
"[2H]C([2H])([2H])C(C#N)(c1ccc2c(-c3cc(OC)c(C(=O)N[C@@H]4C[C@@H]4F)c(OC(F)F)c3)cnn2c1)C([2H])([2H])[2H] [Cpd 275, 4-[6-[1-cyano-2,2,2-trideuterio-1-(trideuteriomethyl)ethyl]pyrazolo[1,5-a]pyridin-3-yl]-2-(difluoromethoxy)-N-[(1R,2S)-2-fluorocyclopropyl]-6-methoxy-benzamide]",–,–,–,"EC50 [1, 4]: 100 to 1000 nM"
"COc1cc(-c2cnn3cc(C(C)(C)C#N)ccc23)cc(OC(F)F)c1C(=O)N[C@@H]1C[C@H]1F (single isomer, unassigned) [Cpd 258, 4-[6-(1-cyano-1-methyl-ethyl)pyrazolo[1,5-a]pyridin-3-yl]-2-(difluoromethoxy)-N-(2-fluorocyclopropyl)-6-methoxy-benzamide]",–,–,–,"EC50 ([1]; read-out: TNFα EC50, human MdM, LPS 200 ng/mL, supernatant after 20 h, inhibition of TNFα): 100 to 1000 nM"
"COc1cc(-c2cnn3cc(C(C)(C)C#N)ccc23)cc(OC(F)F)c1C(=O)N[C@@H]1C[C@H]1F (single isomer, unassigned) [Cpd 257, 4-[6-(1-cyano-1-methyl-ethyl)pyrazolo[1,5-a]pyridin-3-yl]-2-(difluoromethoxy)-N-(2-fluorocyclopropyl)-6-methoxy-benzamide]",–,–,–,"EC50 [1, 4]: 100 to 1000 nM"
